Assay results: paper PMC10746543, “Design principles for cyclin K molecular glue degraders” (Nature Chemical Biology, 2023)
Where “and” joins values, the source holds several entries; their conditions need not be identical. Equal entries are not always repeated. Where two headings read alike, the source gives them in different places.

How the values were obtained:
[1] = tested on: cyclin K–eGFP degradation reporter; assay: Cyclin K reporter stability analysis (dual-color cyclin K–eGFP reporter); assay type: cell-based, human
Method in brief: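 HEK293T–Cas9 cells carrying the cyclin K–eGFP reporter were seeded at 1 × 10^6 ml^−1 and exposed to drug or DMSO for 5 h. Flow cytometry gave geometric means of eGFP and mCherry in round, mCherry-positive cells. The eGFP/mCherry ratio was normalized to the mean of three DMSO controls.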

HEK293T cells = assay: Drug sensitivity assay (CellTiter-Glo viability) with or without MLN4924 pretreatment; assay type: cell-based, human; conditions: Supplementary Table 2
Method in brief: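 First, cells (HEK293T–Cas9, 0.15 × 10^6 ml^−1) are exposed to DMSO or 100 nM MLN4924. Next, drugs follow at 2 h. Finally, CellTiter-Glo is read at day 3 and normalised to DMSO.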

CDK12–cyclin K = CDK12–cyclin K (Homo sapiens, UniProt Q9NYV4); assay: Lanthascreen kinase binding assay, CDK12; conditions: duplicates
Description: Lanthascreen experiments were performed using commercially available reagents (Thermo Fisher) and according to the manufacturer’s instructions.

CDK13 = molecular target: T1, CDK13 (Homo sapiens, UniProt Q14004+Q16531); assay: Label-free quantitative mass spectrometry in MDA-MB-231 cells, CDK13; assay type: cell-based
T1 construct: endogenous in cells; host or cells: MDA-MB-231
Method in brief: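 MDA-MB-231 cells treated 5 h with 1 µM cyclin K degrader or DMSO. Lysates digested with LysC and trypsin, then analysed by label-free diaPASEF LC-MS on a TimsTOF Pro2 with directDIA search and MS1 precursor quantification. Protein abundances scaled and analysed with limma.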

T1 sequence (Q14004 whole entry): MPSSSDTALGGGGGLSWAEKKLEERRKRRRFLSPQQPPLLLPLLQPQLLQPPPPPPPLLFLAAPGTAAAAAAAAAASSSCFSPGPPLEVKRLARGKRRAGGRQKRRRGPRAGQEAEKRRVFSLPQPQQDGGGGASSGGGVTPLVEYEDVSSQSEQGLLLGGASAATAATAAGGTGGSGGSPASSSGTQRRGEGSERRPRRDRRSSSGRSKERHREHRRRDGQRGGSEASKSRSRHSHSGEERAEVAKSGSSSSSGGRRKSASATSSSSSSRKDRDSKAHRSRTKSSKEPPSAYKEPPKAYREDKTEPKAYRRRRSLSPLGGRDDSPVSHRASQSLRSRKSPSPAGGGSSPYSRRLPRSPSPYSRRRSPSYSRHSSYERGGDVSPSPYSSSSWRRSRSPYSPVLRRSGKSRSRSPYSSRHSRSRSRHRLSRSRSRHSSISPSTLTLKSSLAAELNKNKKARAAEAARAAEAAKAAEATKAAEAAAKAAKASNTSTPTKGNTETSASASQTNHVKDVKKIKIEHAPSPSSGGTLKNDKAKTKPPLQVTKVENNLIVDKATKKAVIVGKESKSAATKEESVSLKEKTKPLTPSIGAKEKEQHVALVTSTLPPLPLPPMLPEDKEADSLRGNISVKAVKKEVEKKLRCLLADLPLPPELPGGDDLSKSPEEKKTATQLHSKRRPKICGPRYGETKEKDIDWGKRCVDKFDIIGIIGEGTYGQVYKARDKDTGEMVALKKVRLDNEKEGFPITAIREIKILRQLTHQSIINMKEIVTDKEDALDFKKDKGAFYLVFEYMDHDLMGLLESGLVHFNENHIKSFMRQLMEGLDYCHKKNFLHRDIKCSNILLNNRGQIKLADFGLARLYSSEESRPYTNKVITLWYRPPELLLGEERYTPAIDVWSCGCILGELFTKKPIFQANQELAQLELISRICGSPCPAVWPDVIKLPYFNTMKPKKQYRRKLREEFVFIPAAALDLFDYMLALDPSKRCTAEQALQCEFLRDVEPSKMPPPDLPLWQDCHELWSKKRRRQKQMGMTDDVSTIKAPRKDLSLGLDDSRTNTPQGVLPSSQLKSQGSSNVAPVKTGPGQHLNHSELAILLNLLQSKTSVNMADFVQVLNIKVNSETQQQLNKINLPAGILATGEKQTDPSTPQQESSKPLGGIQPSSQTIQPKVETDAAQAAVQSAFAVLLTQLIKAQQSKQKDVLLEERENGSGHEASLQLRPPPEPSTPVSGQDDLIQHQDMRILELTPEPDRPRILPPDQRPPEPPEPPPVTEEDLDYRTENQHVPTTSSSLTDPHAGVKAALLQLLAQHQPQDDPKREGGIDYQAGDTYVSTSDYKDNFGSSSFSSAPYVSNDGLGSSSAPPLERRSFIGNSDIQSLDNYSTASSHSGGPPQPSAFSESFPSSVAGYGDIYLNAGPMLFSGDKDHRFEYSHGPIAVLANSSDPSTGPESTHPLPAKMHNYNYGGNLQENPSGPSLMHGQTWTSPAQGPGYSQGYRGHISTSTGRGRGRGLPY
T1 sequence (O75909 whole entry partner): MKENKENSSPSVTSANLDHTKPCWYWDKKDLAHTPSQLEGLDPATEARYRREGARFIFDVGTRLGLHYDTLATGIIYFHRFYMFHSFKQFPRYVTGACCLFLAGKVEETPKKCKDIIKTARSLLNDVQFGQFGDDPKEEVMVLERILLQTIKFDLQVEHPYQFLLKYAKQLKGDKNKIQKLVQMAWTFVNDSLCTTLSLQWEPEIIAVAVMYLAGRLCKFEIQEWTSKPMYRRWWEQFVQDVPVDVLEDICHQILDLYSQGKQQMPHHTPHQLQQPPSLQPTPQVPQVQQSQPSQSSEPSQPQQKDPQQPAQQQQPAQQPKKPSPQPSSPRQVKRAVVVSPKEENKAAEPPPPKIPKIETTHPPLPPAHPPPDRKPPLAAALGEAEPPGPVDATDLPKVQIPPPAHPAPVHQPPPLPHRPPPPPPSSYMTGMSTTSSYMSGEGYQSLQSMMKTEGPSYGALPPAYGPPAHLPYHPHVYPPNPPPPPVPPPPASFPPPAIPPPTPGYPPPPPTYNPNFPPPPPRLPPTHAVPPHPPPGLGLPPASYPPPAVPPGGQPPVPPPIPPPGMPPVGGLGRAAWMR
T1 sequence (Q16531 2-1140 limits assumed): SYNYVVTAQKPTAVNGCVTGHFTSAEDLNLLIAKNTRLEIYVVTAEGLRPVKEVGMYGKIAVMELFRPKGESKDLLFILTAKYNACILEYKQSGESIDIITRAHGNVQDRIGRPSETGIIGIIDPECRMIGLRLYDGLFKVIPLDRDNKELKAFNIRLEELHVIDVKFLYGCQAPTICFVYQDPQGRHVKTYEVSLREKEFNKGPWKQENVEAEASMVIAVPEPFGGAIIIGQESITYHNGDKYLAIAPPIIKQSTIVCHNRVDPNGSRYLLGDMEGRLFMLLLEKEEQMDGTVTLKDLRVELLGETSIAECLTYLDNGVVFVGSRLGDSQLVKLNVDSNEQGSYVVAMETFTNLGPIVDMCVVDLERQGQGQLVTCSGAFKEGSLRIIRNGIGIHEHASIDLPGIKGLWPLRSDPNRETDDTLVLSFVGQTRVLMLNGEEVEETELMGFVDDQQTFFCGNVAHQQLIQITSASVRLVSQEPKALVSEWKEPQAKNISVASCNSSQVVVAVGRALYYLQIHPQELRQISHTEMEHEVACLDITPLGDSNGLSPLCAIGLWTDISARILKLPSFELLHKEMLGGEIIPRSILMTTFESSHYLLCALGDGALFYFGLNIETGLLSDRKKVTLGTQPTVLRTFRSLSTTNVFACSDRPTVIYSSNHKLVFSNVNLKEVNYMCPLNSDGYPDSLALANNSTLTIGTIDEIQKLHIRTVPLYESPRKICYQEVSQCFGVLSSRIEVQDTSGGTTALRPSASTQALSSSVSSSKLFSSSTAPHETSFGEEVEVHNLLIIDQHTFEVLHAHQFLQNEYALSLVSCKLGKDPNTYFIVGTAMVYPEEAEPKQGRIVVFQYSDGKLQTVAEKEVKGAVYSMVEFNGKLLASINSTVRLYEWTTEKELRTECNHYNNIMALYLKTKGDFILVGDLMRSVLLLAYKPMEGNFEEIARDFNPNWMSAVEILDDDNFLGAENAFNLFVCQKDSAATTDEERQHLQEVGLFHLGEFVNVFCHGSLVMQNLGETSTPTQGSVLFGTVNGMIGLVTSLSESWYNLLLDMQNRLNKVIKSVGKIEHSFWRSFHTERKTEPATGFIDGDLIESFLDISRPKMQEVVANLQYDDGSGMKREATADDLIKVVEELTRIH
CDK12–cyclin K, sequence (Q9NYV4 713-1052): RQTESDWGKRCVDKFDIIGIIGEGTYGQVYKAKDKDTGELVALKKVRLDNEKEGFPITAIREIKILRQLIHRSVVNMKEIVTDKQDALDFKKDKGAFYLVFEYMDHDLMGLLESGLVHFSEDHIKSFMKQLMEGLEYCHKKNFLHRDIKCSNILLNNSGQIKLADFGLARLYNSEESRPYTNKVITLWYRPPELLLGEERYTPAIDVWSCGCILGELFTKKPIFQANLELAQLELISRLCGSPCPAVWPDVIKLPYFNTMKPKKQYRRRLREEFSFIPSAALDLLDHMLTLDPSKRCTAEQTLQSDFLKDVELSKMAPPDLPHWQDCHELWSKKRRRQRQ
CDK12–cyclin K, sequence (O75909 1-267 partner limits assumed): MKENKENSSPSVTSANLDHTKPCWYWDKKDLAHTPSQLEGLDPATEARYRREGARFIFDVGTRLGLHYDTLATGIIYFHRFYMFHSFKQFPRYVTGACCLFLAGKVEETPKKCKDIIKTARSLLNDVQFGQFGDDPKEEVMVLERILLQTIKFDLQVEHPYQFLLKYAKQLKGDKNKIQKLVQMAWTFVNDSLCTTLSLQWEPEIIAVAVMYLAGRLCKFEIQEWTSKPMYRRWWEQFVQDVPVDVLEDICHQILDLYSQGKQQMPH

DC50 ([1]; Supplementary Fig. 4, HEK293T cycKeGFP reporter, 5h, n=2, read-out: DC50 printed on reporter plot): 39 nM
DC50 ([1]; source data sheet correlations, read-out: DC50): 14 nM
Lanthascreen raw signal, sheet CDK12 (CDK12–cyclin K; compound 0.038147 nM, series r13): 0.01046 and 0.009983
Lanthascreen raw signal, sheet CDK12 (CDK12–cyclin K; compound 0.038147 nM, series r37): 0.01351 and 0.01182
Lanthascreen raw signal, sheet CDK12 (CDK12–cyclin K; compound 0.038147 nM, series r49): 0.007647 and 0.00729
Lanthascreen raw signal, sheet CDK12 (CDK12–cyclin K; compound 0.152588 nM, series r13): 0.009614 and 0.01041
Lanthascreen raw signal, sheet CDK12 (CDK12–cyclin K; compound 0.152588 nM, series r37): 0.01248 and 0.01201
Lanthascreen raw signal, sheet CDK12 (CDK12–cyclin K; compound 0.152588 nM, series r49): 0.009969 and 0.01054
Lanthascreen raw signal, sheet CDK12 (CDK12–cyclin K; compound 0.610352 nM, series r13): 0.01066 and 0.01021
Lanthascreen raw signal, sheet CDK12 (CDK12–cyclin K; compound 0.610352 nM, series r37): 0.01219 and 0.01189
Lanthascreen raw signal, sheet CDK12 (CDK12–cyclin K; compound 0.610352 nM, series r49): 0.01058 and 0.01056
Lanthascreen raw signal, sheet CDK12 (CDK12–cyclin K; compound 1.02544 nM, series r1): 0.008952 and 0.009485
Lanthascreen raw signal, sheet CDK12 (CDK12–cyclin K; compound 3.15521 nM, series r1): 0.008128 and 0.008332
Lanthascreen raw signal, sheet CDK12 (CDK12–cyclin K; compound 9.46563 nM, series r1): 0.008981 and 0.006574
Lanthascreen raw signal, sheet CDK12 (CDK12–cyclin K; compound 9.76563 nM, series r13): 0.009284 and 0.009045
Lanthascreen raw signal, sheet CDK12 (CDK12–cyclin K; compound 9.76563 nM, series r37): 0.009426 and 0.01016
Lanthascreen raw signal, sheet CDK12 (CDK12–cyclin K; compound 9.76563 nM, series r49): 0.009267 and 0.008766
Lanthascreen raw signal, sheet CDK12 (CDK12–cyclin K; compound 31.5521 nM, series r1): 0.007535 and 0.008876
Lanthascreen raw signal, sheet CDK12 (CDK12–cyclin K; compound 39.0625 nM, series r13): 0.008439 and 0.008567
Lanthascreen raw signal, sheet CDK12 (CDK12–cyclin K; compound 39.0625 nM, series r37): 0.009028 and 0.008999
Lanthascreen raw signal, sheet CDK12 (CDK12–cyclin K; compound 39.0625 nM, series r49): 0.00795 and 0.007253
Lanthascreen raw signal, sheet CDK12 (CDK12–cyclin K; compound 99.3891 nM, series r1): 0.006758 and 0.007046
Lanthascreen raw signal, sheet CDK12 (CDK12–cyclin K; compound 156.25 nM, series r13): 0.008038 and 0.008664
Lanthascreen raw signal, sheet CDK12 (CDK12–cyclin K; compound 156.25 nM, series r37): 0.006404 and 0.007018
Lanthascreen raw signal, sheet CDK12 (CDK12–cyclin K; compound 156.25 nM, series r49): 0.006482 and 0.006079
Lanthascreen raw signal, sheet CDK12 (CDK12–cyclin K; compound 315.521 nM, series r1): 0.006236 and 0.005797
Lanthascreen raw signal, sheet CDK12 (CDK12–cyclin K; compound 625 nM, series r13): 0.008328 and 0.007759
Lanthascreen raw signal, sheet CDK12 (CDK12–cyclin K; compound 625 nM, series r37): 0.006628 and 0.006561
Lanthascreen raw signal, sheet CDK12 (CDK12–cyclin K; compound 625 nM, series r49): 0.005855 and 0.00595
Lanthascreen raw signal, sheet CDK12 (CDK12–cyclin K; compound 2500 nM, series r13): 0.007658 and 0.007398
Lanthascreen raw signal, sheet CDK12 (CDK12–cyclin K; compound 2500 nM, series r37): 0.006178 and 0.006049
Lanthascreen raw signal, sheet CDK12 (CDK12–cyclin K; compound 2500 nM, series r49): 0.005776 and 0.005723
Lanthascreen raw signal, sheet CDK12 (CDK12–cyclin K; compound 3155.21 nM, series r1): 0.006081 and 0.005159
Lanthascreen raw signal, sheet CDK12 (CDK12–cyclin K; compound 10000 nM, series r13): 0.007533 and 0.00783
Lanthascreen raw signal, sheet CDK12 (CDK12–cyclin K; compound 10000 nM, series r37): 0.005313 and 0.005643
Lanthascreen raw signal, sheet CDK12 (CDK12–cyclin K; compound 10000 nM, series r49): 0.005957 and 0.005417
Lanthascreen raw signal, sheet CDK12 (CDK12–cyclin K; compound 10002 nM, series r1): 0.004606 and 0.00667
CDK13 peptide count (CDK13; label-free quantitative MS, replicate values): 281.229 and 215.265
CDK13 peptide count (DMSO-normalised) (CDK13; normalised to DMSO = 1, replicate values): 0.4184 and 0.3308
SMILES: Cn1cc(-n2cnc3c(NCc4nc5cc(Cl)c(Cl)cc5[nH]4)nc(N4CCOCC4)nc32)cn1 [SR-4835]
EC50 (HEK293T cells; Homo sapiens, HEK-293T, HEK293T viability, 72 h, compound alone, read-out: Cellular assays EC50): 42 nM
Toxicity rescue (HEK293T cells; MLN4924-mediated cytotoxicity rescue, 10 µM used where n.d.): 645%
